pIC50: −log10 of the molar value. Where two headings read alike, the source gives them in different places.

For data set [1], the system named is S180 sarcoma transplanted tumor. In words: Tumor-inhibiting rate experiment, intravenous injection, S180 sarcoma transplanted tumor in mice. Format: in vivo. The conditions noted are these: for Tumor-inhibiting rate (%): d0-d12 seven times, tumor weight; for tumor volume observation in drug administered group: around the eighth day after drug administration. As to the method:
After 1 week for adaptation, mice are subcutaneously inoculated with S180 sarcoma tissues and randomly grouped after the tumor grows as much as the area of 100 to 300 mm^3; every compound is used for 6 mice in drug administered group and for 12 mice in control group, the administration doses are as below: 25, 50 mg/kg of ECB1P, ECB1GN hydrochloride, ECB1SN hydrochloride and positive controls ECA4P, ECA4GN hydrochloride, as well as 50, 100 mg/kg of positive controls CB1GA hydrochloride, CB1P and CA4P, the administration is given intravenously on Day d0, d2, d4, d6, d8, d10 and d12, seven times in total, measurement of tumor volume, mice weighing and data recording are performed three times every week, the mice are executed on the fourtheenth day after inoculation, tumor tissues are weighed to calculate the tumor-inhibiting rate, tumor weight inhibiting rate %=(1−average tumor weight in treatment group/average tumor weight in control group)×100%.

In a further data set the test system is Kunming mice. In words: Acute toxicity test of single mice intraperitoneal injection. Format: in vivo. The conditions noted are these: for LD50: 14 days observation. As to the method:
Kunming mice (half-and-half male and female, 17 to 22 grams heavy) are randomly grouped according to weights thereof, and during the test, the mice are divided, based on the proportion of 0.9, into 10 dose groups with each including 10 mice and having the maximal dose of 1500 mg/kg, the tested drugs having the respective doses of 1500, 1350, 1215, 1093, 984, 885, 797, 717, 645 and 581 mg/kg are administered in a manner of single intraperitoneal injection, mice observation and death rate recording are respectively performed once 0.25 h, 0.5 h, 1 h, 2 h, 4 h and 24 h after the drug administration, afterwards, everyday mice observation and death rate recording are performed for 14 days, the mice that are not dead are executed on the fifteenth day and are subjected to pathological anatomy.

Another data set concerns Gastric cancer SGC-7901. In words: Antitumor activity evaluation for in vitro cultured tumor cells (SRB). Format: cell-based.
Data set [2] has as its system Human umbilical vein endothelial cell (HUVEC). As to the kind of experiment: Proliferation inhibition of human umbilical vein endothelial cells (SRB). Format: cell-based.
In data set [3] the test system is Human colorectal cancer cell HT-29. In words: Antitumor activity evaluation for in vitro cultured tumor cells (SRB). Format: cell-based. The following applies: for times stronger than positive control CB1: colorectal cancer HT-29.
The next data set deals with Liver cancer Bel-7402. Described as above. Format: cell-based.
For data set [4], the system named is Non-small cell lung cancer cell NCl-H292. Described as above. Format: cell-based.
Where [5] appears, read: NCl-H292, 48 hours, SRB, read-out: IC50.
The mark [6] stands for this setting: SGC-7901, 48 hours, SRB, read-out: IC50.
The mark [7] stands for this setting: HT-29, 48 hours, SRB, read-out: IC50.
Where [8] appears, read: Bel-7402, 48 hours, SRB, read-out: IC50.

With “3,4,5-trimethoxy-3′-glycylamino-4′-ethoxydiphenylethane [CB1GN hydrochloride]”, in data set [1] (50 mg/kg intravenously), the “Tumor-inhibiting rate (%)” value was 26%.
One may read the LD50 as the dose at which mortality reaches 50%. A higher LD50 goes with a less toxic substance. On to “3,4,5-trimethoxy-3′-glycylamino-4′-ethoxydiphenylethane [ECB1GN hydrochloride]”, for which the “Tumor-inhibiting rate (%)” value in data set [1] (25 mg/kg intravenously) came out at 40%. Moreover, the “tumor volume observation in drug administered group” value (shortened to “tumor volume observation”) in data set [1] was “tendency of tumor shrinkage”. In the data set with Kunming mice, the “toxicity compared with positive controls” value was “toxicity lower than ethoxydiphenylethylene positive control compounds ECA4P and ECA4GN hydrochloride”; the LD50 is reported as 1012 mg/kg.
In the case of “3,4,5-trimethoxy-4′-ethoxydiphenylethane-3′-o-disodium phosphate salt [ECB1P]”, the “Tumor-inhibiting rate (%)” value in data set [1] (25 mg/kg intravenously) amounted to 42%. Besides, in data set [1], the “tumor volume observation” value was “tendency of tumor shrinkage”. In the data set with Kunming mice, the “toxicity compared with positive controls” value is “toxicity lower than ethoxydiphenylethylene positive control compounds ECA4P and ECA4GN hydrochloride”; the 50% lethal dose (LD50) is on record as 1056 mg/kg.
For “3,4,5-trimethoxy-4′-methoxydiphenylethane3′-o-disodium phosphate salt [CB1P]”, in data set [1] (50 mg/kg intravenously), the “Tumor-inhibiting rate (%)” value stood at 28%. This molecule had a 50% lethal dose (LD50) in the data set with Kunming mice of 1228 mg/kg.
The term pIC50 denotes the negative decadic logarithm of the IC50, by convention in mol/L. Consider `COc1ccc(/C=C\c2cc(OC)c(OC)c(OC)c2)cc1O` [CA4, (Z)-3,4,5-trimethoxy-3′-hydroxy-4′-methoxydiphenylethylene], for which the negative logarithm of the IC50 (pIC50) is 8.44 in the data set on Gastric cancer SGC-7901 (Homo sapiens, SGC-7901, 48 hours, SRB, read-out: IC50); 8.32 in data set [2] (48 hours, SRB, read-out: IC50); 8.11 to 8.32 in data set [2] (Homo sapiens, 48 h, SRB, read-out: IC50); 7.68 in data set [3] (Homo sapiens, HT-29, 48 hours, SRB, read-out: IC50); 6.08 in the data set on Liver cancer Bel-7402 (Homo sapiens, Bel-7402, 48 hours, SRB, read-out: IC50); 5.62 in data set [4] (setting [5]).
Take `COc1ccc(CCc2cc(OC)c(OC)c(OC)c2)cc1O` [CB1, 3,4,5-trimethoxy-3′-hydroxy-4′-methoxydiphenylethane]: the pIC50 was 8.38 with Gastric cancer SGC-7901 (setting [6]); 8.25 in data set [2] (48 hours, SRB, read-out: IC50); 7.46 in data set [3] (setting [7]); 5.77 in the data set on Liver cancer Bel-7402 (setting [8]); 5.55 in data set [4] (setting [5]).
`COc1ccc(CCc2cc(OC)c(OC)c(OC)c2)cc1N` [CB1N, 3,4,5-trimethoxy-3′-amino-4′-methoxydiphenylethane]: the negative logarithm of the IC50 (pIC50) is 8.32 with Gastric cancer SGC-7901 (setting [6]); 8.11 in data set [2] (48 hours, SRB, read-out: IC50); 7.41 in data set [3] (setting [7]); 5.60 with Liver cancer Bel-7402 (setting [8]); 5.52 in data set [4] (setting [5]).
For `CCOc1ccc(/C=C\c2cc(OC)c(OC)c(OC)c2)cc1O` [ECA4, (Z)-3,4,5-trimethoxy-3′-hydroxy-4′-ethoxydiphenylethylene], the pIC50 is 9.60 in the data set on Gastric cancer SGC-7901 (Homo sapiens, SGC-7901, 48 h); 9.10 in data set [2] (Homo sapiens, 48 h); 9.55 in data set [3] (Homo sapiens, HT-29, 48 h); 7.20 in the data set with Liver cancer Bel-7402 (Homo sapiens, Bel-7402, 48 h); 6.80 in data set [4] (48 h).
In the case of `CCOc1ccc(/C=C\c2cc(OC)c(OC)c(OC)c2)cc1NC(=O)CN.Cl` [ECA4GN hydrochloride, (Z)-3,4,5-trimethoxy-3′-glycylamino-4′-ethoxydiphenylethane], the “Tumor-inhibiting rate (%)” value is reported as 39% in data set [1] (25 mg/kg intravenously) and 64% in data set [1] (50 mg/kg intravenously, listed as ECA4GN hydrochlonde). For the same molecule, the “tumor volume observation” value in data set [1] is listed as “tendency of tumor shrinkage”. Besides, the LD50 with Kunming mice was determined as 912 mg/kg.
With `CCOc1ccc(/C=C\c2cc(OC)c(OC)c(OC)c2)cc1N` [ECA4N, (Z)-3,4,5-trimethoxy-3′-amino-4′-ethoxydiphenylethylene], the negative logarithm of the IC50 (pIC50) was 9.72 in the data set on Gastric cancer SGC-7901 (Homo sapiens, SGC-7901, 48 h); 9.12 in data set [2] (Homo sapiens, 48 h); 9.82 in data set [3] (Homo sapiens, HT-29, 48 h); 7.41 in the data set with Liver cancer Bel-7402 (Homo sapiens, Bel-7402, 48 h); 7.00 in data set [4] (48 h).
Take `CCOc1ccc(/C=C\c2cc(OC)c(OC)c(OC)c2)cc1OP(=O)([O-])[O-].[Na+].[Na+]` [ECA4P, (Z)-3,4,5-trimethoxy-4′-ethoxydiphenylethylene-3′-o-disodium phosphate salt]: the “Tumor-inhibiting rate (%)” value in data set [1] (25 mg/kg intravenously) is reported as 43%. Besides, the “tumor volume observation” value in data set [1] was “tendency of tumor shrinkage”. Besides, in the data set on Kunming mice, the LD50 is given as 906 mg/kg.
For the molecule `CCOc1ccc(CCc2cc(OC)c(OC)c(OC)c2)cc1O` [ECB1, 3,4,5-trimethoxy-3′-hydroxy-4′-ethoxydiphenylethane], the pIC50 was 9.55 in the data set with Gastric cancer SGC-7901 (setting [6]); 9.12 in data set [2] (48 hours, SRB, read-out: IC50); 9.47 in data set [3] (setting [7]); 7.24 in the data set on Liver cancer Bel-7402 (setting [8]); 6.77 in data set [4] (setting [5]). For the same molecule, in data set [3], the “times stronger than positive control CB1” value is on record as “about 100 times”.
Turning to `CCOc1ccc(CCc2cc(OC)c(OC)c(OC)c2)cc1N` [ECB1N, 3,4,5-trimethoxy-3′-amino-4′-ethoxydiphenylethane], the negative logarithm of the IC50 (pIC50) with Gastric cancer SGC-7901 (setting [6]) is 9.82; in data set [2] (48 hours, SRB, read-out: IC50) it was 9.17; in data set [3] (setting [7]), 9.74; in the data set with Liver cancer Bel-7402 (setting [8]), 7.47; in data set [4] (setting [5]) it was 6.92. Besides, in data set [3], the “times stronger than positive control CB1” value is reported as “about 200 times”.
Turning to `CCOc1ccc(CCc2cc(OC)c(OC)c(OC)c2)cc1NC(=O)C(N)CO.Cl` (centres unmarked) [ECB1SN hydrochloride, 3,4,5-trimethoxy-3′-serylamino-4′-ethoxydiphenylethane], the “Tumor-inhibiting rate (%)” value in data set [1] (25 mg/kg intravenously) amounted to 45%. Besides, in data set [1], the “tumor volume observation” value is “tendency of tumor shrinkage”. Besides, in the data set with Kunming mice, the “toxicity compared with positive controls” value was “toxicity lower than ethoxydiphenylethylene positive control compounds ECA4P and ECA4GN hydrochloride”; the LD50 is on record as 1185 mg/kg.
Regarding “(Z)-3,4,5-trimethoxy-4′-methoxydiphenylethylene-3′-o-disodium phosphate salt [CA4P]”, the “Tumor-inhibiting rate (%)” value in data set [1] (50 mg/kg intravenously) worked out at 28%. The 50% lethal dose (LD50) in the data set with Kunming mice was determined as 1276 mg/kg.

These data come from patent US8686187B2, “Ethoxy diphenyl ethane derivatives, preparation processes and uses thereof” (Shanghai Ecust Biomedicine Co., Ltd., priority 2008, dated 2014).
